Data reported in ChEMBL document CHEMBL4184139, “Adamantyl- and other polycyclic cage-based conjugates of desferrioxamine B (DFOB) for treating iron-mediated toxicity in cell models of Parkinson's disease” (Bioorg Med Chem Lett, 2017).
Active and inactive are the calls of the source. The rule behind the calls is not given here.

Key:
[1] = Octanol-water partition coefficient, log P of the compound at 1 mg by RP-HPLC analysis; type: physicochemical
SK-N-BE(2)-M17 [2] = test: Cytoprotection against PQ-induced cell death in human SK-N-BE(2)-M17 cells assessed as increase in cell viability at 100 uM pretreated for 2 hrs followed by 1 mM PQ addition measured after 24 hrs by MTT assay; type: functional, cell-based
SK-N-BE(2)-M17 [3] = test: Cytoprotection against PQ-induced cell death in human SK-N-BE(2)-M17 cells assessed as increase in cell viability at 100 uM pretreated for 2 hrs followed by 1 mM PQ addition measured after 24 hrs by LDH assay; type: functional, cell-based
SK-N-BE(2)-M17 [4] = test: Cytoprotection against H2O2-induced cell death in human SK-N-BE(2)-M17 cells assessed as increase in cell viability at 100 uM pretreated for 2 hrs followed by 1 mM H2O2 addition measured after 24 hrs by MTT assay; type: functional, cell-based
SK-N-BE(2)-M17 [5] = test: Cytoprotection against H2O2-induced cell death in human SK-N-BE(2)-M17 cells assessed as increase in cell viability at 100 uM pretreated for 2 hrs followed by 1 mM H2O2 addition measured after 24 hrs by LDH assay; type: functional, cell-based
SK-N-BE(2)-M17 [6] = test: Cytoprotection against PQ-induced cell death in human SK-N-BE(2)-M17 cells assessed as increase in cell viability at 100 uM treated 2 hrs post 2 mM PQ treatment measured after 24 hrs by MTT assay; type: functional, cell-based
SK-N-BE(2)-M17 [7] = test: Cytoprotection against H2O2-induced cell death in human SK-N-BE(2)-M17 cells assessed as increase in cell viability at 100 uM treated 2 hrs post 0.8 mM H2O2 treatment measured after 24 hrs by MTT assay; type: functional, cell-based
SK-N-BE(2)-M17 [8] = test: Cytoprotection against PQ-induced cell death in human SK-N-BE(2)-M17 cells assessed as increase in cell viability treated 2 hrs post 2 mM PQ treatment measured after 24 hrs by MTT assay; type: functional, cell-based
SK-N-BE(2)-M17 [9] = test: Cytoprotection against PQ-induced cell death in human SK-N-BE(2)-M17 cells assessed as increase in cell viability at 100 uM treated post 200 uM Fecl3 and 1 mM PQ treatment measured after 24 hrs by MTT assay; type: functional, cell-based
SK-N-BE(2)-M17 [10] = test: Cytoprotection against PQ-induced cell death in human SK-N-BE(2)-M17 cells assessed as increase in cell viability at 100 uM treated post 200 uM Fecl3 and 1 mM PQ treatment measured after 24 hrs by LDH assay; type: functional, cell-based
Astrocyte [11] = test: Cytoprotection against H2O2-induced cell death in BSO pretreated C57BL6/J mouse brain primary astrocytes assessed as increase in cell viability at 10 uM pretreated for 2 hrs followed by H2O2 addition measured after 24 hrs by MTT assay; type: functional, cell-based
Astrocyte [12] = test: Cytoprotection against H2O2-induced cell death in BSO pretreated C57BL6/J mouse brain primary astrocytes assessed as increase in cell viability at 10 uM pretreated for 2 hrs followed by H2O2 addition measured after 24 hrs by LDH release assay; type: functional, cell-based
SK-N-BE(2)-M17 [13] = test: Cytotoxicity against human SK-N-BE(2)-M17 cells at 100 uM 24 hrs by MTT assay; type: cell-based; details: sk-n-be(2)-m17, 24 h
SK-N-BE(2)-M17 [14] = test: Cytotoxicity against human SK-N-BE(2)-M17 cells at 100 uM 24 hrs by LDH release assay; type: cell-based; details: sk-n-be(2)-m17, 24 h
[15] = Binding affinity to Fe3+ assessed as [M+H]+ adduct formation by LC-MS/MS analysis
[16] = Binding affinity to Fe3+ assessed as [M+2H]+ adduct formation by LC-MS/MS analysis
[17] = Binding affinity to Fe3+ assessed as change in retention time for compound-Fe3+ complex by RP-HPLC analysis relative to free ligand
SK-N-BE(2)-M17 [18] = test: Cytoprotection against PQ-induced cell death in human SK-N-BE(2)-M17 cells assessed as increase in cell viability up to 1 mM treated 2 hrs post 2 mM PQ treatment by MTT assay; type: functional, cell-based
[19] = Binding affinity to Fe3+ in ferric ammonium citrate loaded C57BL6/J mouse brain primary astrocytes assessed as iron depletion at 100 uM treated 2 hrs post 125 uM FAC loading measured after 2 hrs by ICP-MS analysis; type: cell-based
[20] = Binding affinity to Fe3+
[21] = Binding affinity to Fe2+
SK-N-BE(2)-M17 [22] = test: Cytoprotection against PQ-induced cell death in human SK-N-BE(2)-M17 cells assessed as increase in cell viability at 1 mM pretreated for 2 hrs followed by 1 mM PQ addition measured after 24 hrs by MTT assay; type: functional, cell-based
SK-N-BE(2)-M17 [23] = test: Cytoprotection against PQ-induced cell death in human SK-N-BE(2)-M17 cells assessed as increase in cell viability at 1 mM pretreated for 2 hrs followed by 1 mM PQ addition measured after 24 hrs by LDH assay; type: functional, cell-based
SK-N-BE(2)-M17 [24] = test: Cytoprotection against H2O2-induced cell death in human SK-N-BE(2)-M17 cells assessed as increase in cell viability at 1 mM pretreated for 2 hrs followed by 1 mM H2O2 addition measured after 24 hrs by MTT assay; type: functional, cell-based
SK-N-BE(2)-M17 [25] = test: Cytoprotection against H2O2-induced cell death in human SK-N-BE(2)-M17 cells assessed as increase in cell viability at 1 mM pretreated for 2 hrs followed by 1 mM H2O2 addition measured after 24 hrs by LDH assay; type: functional, cell-based
SK-N-BE(2)-M17 [26] = test: Cytoprotection against PQ-induced cell death in human SK-N-BE(2)-M17 cells assessed as increase in cell viability at 100 uM treated 2 hrs post 2 mM PQ treatment measured after 24 hrs by LDH assay; type: functional, cell-based
SK-N-BE(2)-M17 [27] = test: Cytoprotection against H2O2-induced cell death in human SK-N-BE(2)-M17 cells assessed as increase in cell viability at 100 uM treated 2 hrs post 0.8 mM H2O2 treatment measured after 24 hrs by LDH assay; type: functional, cell-based

Row | Structure (SMILES) | logP [1] | Activity (SK-N-BE(2)-M17 [2]) | Activity (SK-N-BE(2)-M17 [3]) | Activity (SK-N-BE(2)-M17 [4]) | Activity (SK-N-BE(2)-M17 [5]) | Activity (SK-N-BE(2)-M17 [6]) | Activity (SK-N-BE(2)-M17 [7]) | EC50 (SK-N-BE(2)-M17 [8]) [µM] | Activity (SK-N-BE(2)-M17 [9]) | Activity (SK-N-BE(2)-M17 [10]) | Activity (Astrocyte [11]) | Activity (Astrocyte [12]) | Activity (SK-N-BE(2)-M17 [13]) | Activity (SK-N-BE(2)-M17 [14]) | Activity [15] | Activity [16] | Retention time [17] [min] | Activity [19] | Activity (SK-N-BE(2)-M17 [26]) | Activity (SK-N-BE(2)-M17 [27]) | further results
1 | CC(=O)N(O)CCCCCNC(=O)CCC(=O)N(O)CCCCCNC(=O)CCC(=O)N(O)CCCCCNC(=O)C12CC3(C)CC(C)(CC(C)(C3)C1)C2 | 2.54 | Active | Active | Active | Active | Active | Active | 3.4 | Active | Active | Active | Active | Non-Toxic | Non-Toxic | Active | Active | 1.85 |  |  |  | 
2 | CC(=O)N(O)CCCCCNC(=O)CCC(=O)N(O)CCCCCNC(=O)CCC(=O)N(O)CCCCCNC(=O)C12CC3CC(C)(CC(C)(C3)C1)C2 | 2.07 | Active | Active | Active | Active | Active | Active | 9.8 | Active | Active | Active | Active | Non-Toxic | Non-Toxic | Active | Active | 1.06 |  |  |  | 
3 | CC(=O)N(O)CCCCCNC(=O)CCC(=O)N(O)CCCCCNC(=O)CCC(=O)N(O)CCCCCN [DEFEROXAMINE] | -2.29 |  |  |  |  |  |  |  |  |  |  |  |  |  |  |  | -0.52 | inactive |  |  | Activity (SK-N-BE(2)-M17 [18]): inactive; log K [20]: 30; log K [21]: 8; Activity (SK-N-BE(2)-M17 [22]): Active; Activity (SK-N-BE(2)-M17 [23]): Active; Activity (SK-N-BE(2)-M17 [24]): Active; Activity (SK-N-BE(2)-M17 [25]): Active
4 | CC(=O)N(O)CCCCCNC(=O)CCC(=O)N(O)CCCCCNC(=O)CCC(=O)N(O)CCCCCNC(=O)C12CC3CC(CC(C3)C1)C2 | 1.32 | Active | Active | Active | Active | Active | Active |  | Active | Active | Active | Active | Non-Toxic | Non-Toxic | Active | Active | 0.43 |  | Active | Active | 
5 | CC(=O)N(O)CCCCCNC(=O)CCC(=O)N(O)CCCCCNC(=O)CCC(=O)N(O)CCCCCNC(=O)C12CC3CC(C1)CC(c1ccc([N+](=O)[O-])cc1)(C3)C2 | 2.09 | Active | Active | Active | Active | Active | Active |  |  | Active | Active | Active | Non-Toxic | Non-Toxic | Active | Active | 1.71 |  | Active | Active | 
6 | CC(=O)N(O)CCCCCNC(=O)CCC(=O)N(O)CCCCCNC(=O)CCC(=O)N(O)CCCCCNC(=O)C1CCCCC1 | 0.96 | inactive | inactive | inactive | inactive | inactive | inactive |  |  |  |  |  | Non-Toxic | Non-Toxic | Active | Active | -0.04 | Active | inactive | inactive | 
